Assay results reported in PMC6274316 (Molecules, 2016).
“Also recorded” adds a separate entry of the source. Marks after values point to notes of the source that are not given here.

Assays:
[1] = system: ADP-induced platelet aggregation; assay: Inhibition of ADP-induced platelet aggregation in rats ex vivo (Born's method); set-up: species or system rat; details: for Platelet Aggregation (%): male Wistar rats, ADP 1.0 μM, mean ± SD n = 6; for antiplatelet effect (in words): rat ex vivo
Method: Two hours after administration, rats were anesthetized using sodium pentobarbital and blood samples collected from the abdominal aorta for platelet aggregation tests using Born’s method. ADP (1.0 μM, Sigma-Aldrich, Co., St. Louis, MO, USA) was used as agonist for platelet aggregation. Platelet aggregation was measured using a coagulation analyzer (NJ4, Beijing Precil Instrument Company, Beijing, China).

[2] = rat, 1000 ng/mL
Method: Blood samples (100 μL) were collected every 10 min over 120 min, mixed with methanol (950 μL), water (50 μL) and an internal standard (IS) solution (diazepam, 100 μL, 100 ng/mL) and centrifuged at low temperature at 13,000 rpm. […] This was carried out using an Agilent 1100 Series HPLC system (degasser, pump, auto sampler, and column oven, Agilent Technologies, Santa Clara, CA, USA) coupled to an AB SCIEX Qtrap 2000 mass spectrometer (Applied Biosystems Sciex, Ottawa, ON, Canada) with an ESI source operated in the positive ion mode. Data acquisition and integration were performed by Analyst software (version 1.3.2, Applied Biosystems Sciex, Ottawa, ON, Canada). Chromatography was performed on a ZORBAX Extend-C18 column (150 mm × 4.6 mm i.d., 5 μm, Agilent Technologies, Santa Clara, CA, USA) maintained at 40 °C using methanol and 0.1% aqueous formic acid (20:80, v/v) as mobile phase delivered at a flow rate of 1.0 mL/min. The injection volume was 20 μL. A 50:50 split of the column eluent was made by means of a T-piece. The mass spectrometer was operated at unit resolution for Q1 and Q3 in the multiple reaction monitoring (MRM) mode with a dwell time of 200 ms per MRM channel. […] QC samples were prepared independently at concentrations of 3, 30, and 800 ng/mL in the same way. […]

esterases = details: cited from earlier work
CYP2C19 = details: cited from earlier work
[3] = rat; cited from earlier work
[4] = ex vivo 2 h after oral dose 7.8 μmol/kg

Row | melting point [°C] | Structure (SMILES) | Platelet Aggregation (%) [1, 4] [%] | antiplatelet effect (in words) ([1]; oral dose 7.8 μmol/kg) | other results
1 | – | O=S(=O)(O)O.[2H]C([2H])([2H])OC(=O)[C@H](c1ccccc1Cl)N1CCc2sccc2C1 [Compound 8, Methyl-d3 (S)-2-(2-chlorophenyl)-2-(6,7-dihydrothieno[3,2-c]pyridin-5(4H)-yl)acetate bisulfate] | 36.6 ± 6.6 | potent inhibitors | –
2 | – | [2H]C([2H])([2H])OC(=O)[C@H](c1ccccc1Cl)N1CCC2SC(=O)C=C2C1 (stereo partly drawn) [Compound 9, Methyl-d3 (2S)-2-(2-chlorophenyl)-2-(2-oxo-2,6,7,7a-tetrahydrothieno[3,2-c]pyridin-5(4H)-yl)acetate] | 21.2 ± 7.6 | potent antiplatelet agent | –
3 | – | [2H]C([2H])([2H])OC(=O)[C@H](c1ccccc1Cl)N1CCc2sc(OC(C)=O)cc2C1 [Compound 10a, Methyl-d3 (S)-2-(2-acetoxy-6,7-dihydrothieno[3,2-c]pyridin-5(4H)-yl)-2-(2chlorophenyl)acetate] | 17.3 ± 8.2 | potent inhibitors; also recorded: potent antiplatelet activity | –
4 | – | Cl.[2H]C([2H])([2H])OC(=O)[C@H](c1ccccc1Cl)N1CCc2sc(OC(=O)CC)cc2C1 [Compound 10b, (S)-5-(1-(2-Chlorophenyl)-2-(methoxy-d3)-2-oxoethyl)-4,5,6,7-tetrahydrothieno[3,2-c]pyridin-2-yl propionate hydrochloride] | 24.9 ± 9.7 | potent antiplatelet activity | –
5 | – | [2H]C([2H])([2H])OC(=O)[C@H](c1ccccc1Cl)N1CCc2sc(OC(=O)CCC)cc2C1 [Compound 10c, (S)-5-(1-(2-Chlorophenyl)-2-(methoxy-d3)-2-oxoethyl)-4,5,6,7-tetrahydrothieno[3,2-c]pyridin-2-yl butyrate] | 29.9 ± 9.5 | potent antiplatelet activity | –
6 | 146.7 to 149.9 | Cl.[2H]C([2H])([2H])OC(=O)[C@H](c1ccccc1Cl)N1CCc2sc(OC(=O)C(C)C)cc2C1 [Compound 10d, (S)-5-(1-(2-Chlorophenyl)-2-(methoxy-d3)-2-oxoethyl)-4,5,6,7-tetrahydrothieno[3,2-c]pyridin-2-yl isobutyrate hydrochloride] | 36.3 ± 4.5 | potent antiplatelet activity | –
7 | – | [2H]C([2H])([2H])OC(=O)[C@H](c1ccccc1Cl)N1CCc2sc(OC(=O)C3CC3)cc2C1 [Compound 10e, (S)-5-(1-(2-Chlorophenyl)-2-(methoxy-d3)-2-oxoethyl)-4,5,6,7-tetrahydrothieno[3,2-c]pyridin-2-yl cyclopro-panecarboxylate] | 24.6 ± 10.0 | anomalously potent; also recorded: potent antiplatelet activity | –
8 | 49.4 to 52.7 | [2H]C([2H])([2H])OC(=O)[C@H](c1ccccc1Cl)N1CCc2sc(OC(=O)CCCCC)cc2C1 [Compound 10g, (S)-5-(1-(2-Chlorophenyl)-2-(methoxy-d3)-2-oxoethyl)-4,5,6,7-tetrahydrothieno[3,2-c]pyridin-2-yl hexanoate] | 35.2 ± 7.7 | potent antiplatelet activity | –
9 | 35.8 to 37.6 | [2H]C([2H])([2H])OC(=O)[C@H](c1ccccc1Cl)N1CCc2sc(OC(=O)CCCCCCCCCCC)cc2C1 [Compound 10i, (S)-5-(1-(2-Chlorophenyl)-2-(methoxy-d3)-2-oxoethyl)-4,5,6,7-tetrahydrothieno[3,2-c]pyridin-2-yl laurate] | 49.7 ± 4.0 | – | –
10 | 121.7 to 123.1 | [2H]C([2H])([2H])OC(=O)[C@H](c1ccccc1Cl)N1CCc2sc(OC(=O)C=Cc3ccccc3)cc2C1 [Compound 10j, (S)-5-(1-(2-Chlorophenyl)-2-(methoxy-d3)-2-oxoethyl)-4,5,6,7-tetrahydrothieno[3,2-c]pyridin-2-yl cinnamate] | 56.4 ± 6.9 | – | –
11 | – | Cl.[2H]C([2H])([2H])OC(=O)[C@H](c1ccccc1Cl)N1CCc2sc(OC(=O)c3ccccc3)cc2C1 [Compound 10k, (S)-5-(1-(2-Chlorophenyl)-2-(methoxy-d3)-2-oxoethyl)-4,5,6,7-tetrahydrothieno[3,2-c]pyridin-2-yl benzoate hydrochloride] | 43.6 ± 9.5 | – | –
12 | – | [2H]C([2H])([2H])OC(=O)[C@H](c1ccccc1Cl)N1CCc2sc(OC(=O)c3ccccc3C(F)(F)F)cc2C1 [Compound 10l, (S)-5-(1-(2-Chlorophenyl)-2-(methoxy-d3)-2-oxoethyl)-4,5,6,7-tetrahydrothieno[3,2-c]pyridin-2-yl 2-(trifluoromethyl)benzoate] | 49.2 ± 4.6 | – | –
13 | 92.1 to 94.8 | [2H]C([2H])([2H])OC(=O)[C@H](c1ccccc1Cl)N1CCc2sc(OC(=O)c3cccnc3)cc2C1 [Compound 10m, (S)-5-(1-(2-Chlorophenyl)-2-(methoxy-d3)-2-oxoethyl)-4,5,6,7-tetrahydrothieno[3,2-c]pyridin-2-yl nicotinate] | 37.4 ± 6.7 | strong potency; also recorded: potent antiplatelet activity | –
14 | – | [2H]C([2H])([2H])OC(=O)[C@@H](c1ccccc1Cl)N1CCc2sc(OC(C)=O)cc2C1 [Compound R-10a, Methyl-d3 (R)-2-(2-acetoxy-6,7-dihydrothieno[3,2-c]pyridin-5(4H)-yl)-2-(2chlorophenyl)acetate] | 57.4 ± 5.0 | almost inactive | –
15 | – | COC(=O)[C@H](c1ccccc1Cl)N1CCc2sccc2C1 [clopidogrel, Clopidogrel] | 59.8 ± 8.4 | low activity | time after which concentration was below the limit of detection [2]: 70 min; proportion hydrolyzed by esterases to inactive clopidogrel acid (esterases): 85%; proportion of an oral dose metabolized to inactive metabolites (esterases): more than 90%; Platelet Aggregation (%) ([1]; ex vivo 2 h after oral dose 78 μmol/kg (clopidogrel bisulfate, active control)): 15.8 ± 8.0 ^b %; antiplatelet effect (in words) ([1]; oral dose 78 μmol/kg): strong inhibitory effect; contribution of CYP2C19 to the first step (to 2-oxoclopidogrel) (CYP2C19): 44.9%; contribution of CYP2C19 to the second step (2-oxoclopidogrel to AM) (CYP2C19): 20.6%
16 | – | COC(=O)[C@H](c1ccccc1Cl)N1CCc2sc(OC(C)=O)cc2C1 [vicagrel, reference compound] | 20.0 ± 9.1 | potent inhibitors | level of AM relative to clopidogrel [3]: four-fold

Row | Structure (SMILES) | melting point [°C] | Platelet Aggregation (%) [1, 4] [%] | antiplatelet effect (in words) ([1]; oral dose 7.8 μmol/kg) | other results
17 | [2H]C([2H])([2H])OC(=O)[C@H](c1ccccc1Cl)N1CCc2sc(OC(=O)C(C)(C)C)cc2C1 [Compound 10f, (S)-5-(1-(2-Chlorophenyl)-2-(methoxy-d3)-2-oxoethyl)-4,5,6,7-tetrahydrothieno[3,2-c]pyridin-2-yl pivalate] | 105.4 to 107.1 | 44.7 ± 4.1 | – | –
18 | [2H]C([2H])([2H])OC(=O)[C@H](c1ccccc1Cl)N1CCc2sc(OC(=O)C(C)(C)CC)cc2C1 [Compound 10h, (S)-5-(1-(2-Chlorophenyl)-2-(methoxy-d3)-2-oxoethyl)-4,5,6,7-tetrahydrothieno[3,2-c]pyridin-2-yl 2,2-dimethylbutanoate] | 99.4 to 100.3 | 48.5 ± 6.7 | – | –
